Experimental data as given in PubChem BioAssay AID1963841 (Molecular Pharmacology Branch, DTP, NCI, 2024).

System: 439559-082-T-J2-PDC spheroid viability
Assay: Anticancer human tumor 439559-082-T-J2-PDC patient-derived colon adenocarcinoma cell line growth inhibition [POLQ]
Conditions: spheroids with HUVEC and MSC; for IC50: curve of first compound; for viability, T/C: stronger effect = lower value
How it was run: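 Complex spheroid viability model combining PDC tumour cells with endothelial (HUVEC) and MSC stromal cells. Novobiocin, ART-558 or RP6685 were tested singly and in combination with standard and investigational anticancer drugs. Each was titrated in half-log steps from near clinical Cmax, or from 10 microM where Cmax was unknown.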

[1] = second compound 0.0316 µM, first compound 0.0316 µM
[2] = second compound 0.0316 µM, first compound 0.1 µM
[3] = second compound 0.0316 µM, first compound 0.316 µM
[4] = second compound 0.0316 µM, first compound 1 µM
[5] = second compound 0.0316 µM, first compound 3.16 µM
[6] = second compound 0.0316 µM, first compound 10 µM
[7] = second compound 0.1 µM, first compound 0.0316 µM
[8] = second compound 0.1 µM, first compound 0.1 µM
[9] = second compound 0.1 µM, first compound 0.316 µM
[10] = second compound 0.1 µM, first compound 1 µM
[11] = second compound 0.1 µM, first compound 3.16 µM
[12] = second compound 0.1 µM, first compound 10 µM
[13] = second compound 0.316 µM, first compound 0.0316 µM
[14] = second compound 0.316 µM, first compound 0.1 µM
[15] = second compound 0.316 µM, first compound 0.316 µM
[16] = second compound 0.316 µM, first compound 1 µM
[17] = second compound 0.316 µM, first compound 3.16 µM
[18] = second compound 0.316 µM, first compound 10 µM
[19] = second compound 1 µM, first compound 0.0316 µM
[20] = second compound 1 µM, first compound 0.1 µM
[21] = second compound 1 µM, first compound 0.316 µM
[22] = second compound 1 µM, first compound 1 µM
[23] = second compound 1 µM, first compound 3.16 µM
[24] = second compound 1 µM, first compound 10 µM
[25] = second compound 3.16 µM, first compound 0.0316 µM
[26] = second compound 3.16 µM, first compound 0.1 µM
[27] = second compound 3.16 µM, first compound 0.316 µM
[28] = second compound 3.16 µM, first compound 1 µM
[29] = second compound 3.16 µM, first compound 3.16 µM
[30] = second compound 3.16 µM, first compound 10 µM
[31] = second compound 10 µM, first compound 0.0316 µM
[32] = second compound 10 µM, first compound 0.1 µM
[33] = second compound 10 µM, first compound 0.316 µM
[34] = second compound 10 µM, first compound 1 µM
[35] = second compound 10 µM, first compound 3.16 µM
[36] = second compound 10 µM, first compound 10 µM
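Further: spheroids exposed to compounds for seven days before readout.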
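Wherever viability, T/C is given: 100% = DMSO vehicle control viability.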

`COc1ccc([C@@H](O)c2cc(-c3ncnc4cc(N5CCOCC5)ccc34)c(F)cc2Cl)nn1` + Cc1cccc(N(C)C(=O)C2C(O)CCN2c2nc(C)cc(C(F)(F)F)c2C#N)c1 showed an IC50 (second compound 0.0316 µM) greater than 10 µM, an IC50 (second compound 0.1 µM) greater than 10 µM and an IC50 (second compound 0.316 µM) greater than 10 µM. It also gave an IC50 (second compound 1 µM) greater than 10 µM, an IC50 (second compound 3.16 µM) greater than 10 µM and an IC50 (second compound 10 µM) greater than 10 µM. The viability, T/C [1] was 95.2%, the viability, T/C [2] was 95.5% and the viability, T/C [3] was 95.9%. It also gave a viability, T/C [4] of 94.9%, a viability, T/C [5] of 93.4% and a viability, T/C [6] of 81.5%. For the same compound, the viability, T/C [7] was 101%, the viability, T/C [8] was 99.3% and the viability, T/C [9] was 94.7%. The viability, T/C [10] was 92.9%, the viability, T/C [11] was 92% and the viability, T/C [12] was 80.1%. For the same compound, the viability, T/C [13] was 105%, the viability, T/C [14] was 111% and the viability, T/C [15] was 92.1%. For the same compound, the viability, T/C [16] was 99.3%, the viability, T/C [17] was 87.4% and the viability, T/C [18] was 80.9%. It also gave a viability, T/C [19] of 108%, a viability, T/C [20] of 101% and a viability, T/C [21] of 91.6%. It also gave a viability, T/C [22] of 93.4%, a viability, T/C [23] of 85.5% and a viability, T/C [24] of 83%. For the same compound, the viability, T/C [25] was 95.1%, the viability, T/C [26] was 92.3% and the viability, T/C [27] was 97.4%. For the same compound, the viability, T/C [28] was 95.6%, the viability, T/C [29] was 78.1% and the viability, T/C [30] was 77.1%. It also gave a viability, T/C [31] of 94.8%, a viability, T/C [32] of 94.7% and a viability, T/C [33] of 93%. The viability, T/C [34] was 83.5%, the viability, T/C [35] was 83.6% and the viability, T/C [36] was 78.3%.
With `CNCc1ccc(-c2[nH]c3cc(F)cc4c3c2CCNC4=O)cc1` + Cc1cccc(N(C)C(=O)C2C(O)CCN2c2nc(C)cc(C(F)(F)F)c2C#N)c1 the IC50 (second compound 0.0316 µM) was greater than 10 µM, the IC50 (second compound 0.1 µM) was greater than 10 µM and the IC50 (second compound 0.316 µM) was greater than 10 µM. For the same compound, the IC50 (second compound 1 µM) was greater than 10 µM, the IC50 (second compound 3.16 µM) was greater than 10 µM and the IC50 (second compound 10 µM) was greater than 10 µM. For the same compound, the viability, T/C [1] was 94.8%, the viability, T/C [2] was 108% and the viability, T/C [3] was 99.3%. It also gave a viability, T/C [4] of 96.5%, a viability, T/C [5] of 102% and a viability, T/C [6] of 110%. The viability, T/C [7] was 103%, the viability, T/C [8] was 105% and the viability, T/C [9] was 108%. It also gave a viability, T/C [10] of 95.8%, a viability, T/C [11] of 101% and a viability, T/C [12] of 96.8%. For the same compound, the viability, T/C [13] was 105%, the viability, T/C [14] was 105% and the viability, T/C [15] was 98.3%. For the same compound, the viability, T/C [16] was 114%, the viability, T/C [17] was 102% and the viability, T/C [18] was 102%. The viability, T/C [19] was 99.3%, the viability, T/C [20] was 92.6% and the viability, T/C [21] was 92.2%. The viability, T/C [22] was 106%, the viability, T/C [23] was 95.7% and the viability, T/C [24] was 106%. The viability, T/C [25] was 105%, the viability, T/C [26] was 98.3% and the viability, T/C [27] was 96.9%. It also gave a viability, T/C [28] of 99.1%, a viability, T/C [29] of 102% and a viability, T/C [30] of 99.5%. The viability, T/C [31] was 88.4%, the viability, T/C [32] was 92.8% and the viability, T/C [33] was 93.5%. It also gave a viability, T/C [34] of 91.1%, a viability, T/C [35] of 97.2% and a viability, T/C [36] of 100%.
In the case of `CC(C)n1c(=O)n(C)c2cnc3cc(F)c(-c4ccc(OCCCN5CCCCC5)nc4)cc3c21` + COC1C(OC(N)=O)C(O)C(Oc2ccc3c(O)c(NC(=O)c4ccc(O)c(CC=C(C)C)c4)c(=O)oc3c2C)OC1(C)C, the IC50 (second compound 0.0316 µM) is reported as greater than 10 µM, the IC50 (second compound 0.1 µM) is reported as greater than 10 µM and the IC50 (second compound 0.316 µM) is reported as greater than 10 µM. For the same compound, the IC50 (second compound 1 µM) was greater than 10 µM, the IC50 (second compound 3.16 µM) was greater than 10 µM and the IC50 (second compound 10 µM) was greater than 10 µM. It also gave a viability, T/C [1] of 97.8%, a viability, T/C [2] of 102% and a viability, T/C [3] of 109%. It also gave a viability, T/C [4] of 116%, a viability, T/C [5] of 113% and a viability, T/C [6] of 102%. It also gave a viability, T/C [7] of 111%, a viability, T/C [8] of 109% and a viability, T/C [9] of 110%. It also gave a viability, T/C [10] of 119%, a viability, T/C [11] of 102% and a viability, T/C [12] of 99.4%. The viability, T/C [13] was 119%, the viability, T/C [14] was 109% and the viability, T/C [15] was 109%. For the same compound, the viability, T/C [16] was 112%, the viability, T/C [17] was 107% and the viability, T/C [18] was 91.2%. It also gave a viability, T/C [19] of 110%, a viability, T/C [20] of 111% and a viability, T/C [21] of 111%. The viability, T/C [22] was 109%, the viability, T/C [23] was 110% and the viability, T/C [24] was 95%. The viability, T/C [25] was 105%, the viability, T/C [26] was 107% and the viability, T/C [27] was 106%. The viability, T/C [28] was 112%, the viability, T/C [29] was 111% and the viability, T/C [30] was 97.6%. It also gave a viability, T/C [31] of 103%, a viability, T/C [32] of 96.9% and a viability, T/C [33] of 106%. The viability, T/C [34] was 106%, the viability, T/C [35] was 113% and the viability, T/C [36] was 102%.
Work on `CC1COCCN1c1cc(-c2ccnn2C)c2ccnc(-c3ccn[nH]3)c2n1` (stereo not drawn) + Cc1cccc(N(C)C(=O)C2C(O)CCN2c2nc(C)cc(C(F)(F)F)c2C#N)c1 yielded an IC50 (second compound 0.0316 µM) of 0.557 µM, an IC50 (second compound 0.1 µM) of 0.397 µM and an IC50 (second compound 0.316 µM) of 0.311 µM. For the same compound, the IC50 (second compound 1 µM) was 0.478 µM, the IC50 (second compound 3.16 µM) was 0.291 µM and the IC50 (second compound 10 µM) was 0.841 µM. It also gave a viability, T/C [1] of 91%, a viability, T/C [2] of 79.8% and a viability, T/C [3] of 50.9%. It also gave a viability, T/C [4] of 49.7%, a viability, T/C [5] of 53.6% and a viability, T/C [6] of 43.6%. For the same compound, the viability, T/C [7] was 95.5%, the viability, T/C [8] was 81.1% and the viability, T/C [9] was 51.2%. For the same compound, the viability, T/C [10] was 44.3%, the viability, T/C [11] was 49.4% and the viability, T/C [12] was 43.3%. For the same compound, the viability, T/C [13] was 87.7%, the viability, T/C [14] was 80.3% and the viability, T/C [15] was 49.5%. The viability, T/C [16] was 47.8%, the viability, T/C [17] was 51.6% and the viability, T/C [18] was 40.8%. The viability, T/C [19] was 92.9%, the viability, T/C [20] was 76.9% and the viability, T/C [21] was 52%. For the same compound, the viability, T/C [22] was 46.2%, the viability, T/C [23] was 51.4% and the viability, T/C [24] was 37.4%. It also gave a viability, T/C [25] of 89%, a viability, T/C [26] of 76.8% and a viability, T/C [27] of 47.2%. The viability, T/C [28] was 46.7%, the viability, T/C [29] was 55.8% and the viability, T/C [30] was 42%. For the same compound, the viability, T/C [31] was 82.3%, the viability, T/C [32] was 72.3% and the viability, T/C [33] was 50.6%. For the same compound, the viability, T/C [34] was 49.7%, the viability, T/C [35] was 49.8% and the viability, T/C [36] was 36.8%.
